Measured values from patent publication US5530019A, “Indole derivatives useful as testosterone 5α-reductase inhibitors” (Fujisawa Pharmaceutical Co., Ltd., priority 1993, dated 1996).

Target: T1, testosterone 5α-reductase (Rattus norvegicus, UniProt P31214)
T1 construct: The prostates were drained, minced, and then homogenized in 3 -4 tissue volumes of medium A; from tissue; host or cells: ventral prostate of mature male Sprague-Dawley rats, resuspended 3,000 g pellet
T1 sequence (P31214 1-254): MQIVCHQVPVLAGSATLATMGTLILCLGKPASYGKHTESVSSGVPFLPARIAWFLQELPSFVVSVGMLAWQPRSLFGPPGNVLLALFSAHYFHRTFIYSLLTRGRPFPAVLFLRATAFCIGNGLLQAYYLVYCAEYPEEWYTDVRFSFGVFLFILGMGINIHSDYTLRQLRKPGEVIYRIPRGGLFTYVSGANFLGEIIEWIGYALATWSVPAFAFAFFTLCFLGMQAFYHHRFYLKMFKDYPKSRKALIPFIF
Assay: Inhibitory activity on testosterone 5α-reductase in rats (rat ventral prostate suspension, 3H-testosterone)
Format: biochemical, rat (Spraque-Dawley male rats)
Conditions: rat prostatic 5α-reductase; 2.2×10^-9 M testosterone, 50 μM NADPH, pH 6.5, 37° C., 30 minutes
Text: [2]Inhibitory activity on testosterone 5α-reductase in rats:
1,2,6,7-^3 H-testosterone (85-105 Ci/mmol) is a mixture of 1,2,6,7-3H-testosterone and testosterone which includes 85-105 Ci of 1,2,6,7-^3 H-testosterone per mmol of testosterone and is purchased from New England Nuclear, Boston, Mass., U.S.A.
Aquazol-2 (Aquazol-2 Universal LSC Cocktail) trademark, purchased from New England Nuclear, Boston, Mass., U.S.A. ii) Preparation of prostatic testosterone 5α-reductase
Mature Spraque-Dawley male rats (7-8 weeks old) were sacrificed by diethyl ether. The ventral prostates were dissected to be free of their capsules and their combined volume was measured by displacement in several milliliters of ice-cold medium A (0.32M sucrose, 0.1 mM dithiothreitol and 20 mM sodium phosphate, pH 6.5). Unless specified, all the following procedures were carried out at 0 -4. The prostates were drained, minced, and then homogenized in 3 -4 tissue volumes of medium A with Pyrex-glass homogenizer. […]
The reaction solution contains 1 mM dithiothreitol, 40 mM sodium phosphate pH 6.5, 50 μM NADPH, 1,2,6,7-^3 H-testosterone/testosterone (2.2×10^-9 M) and the suspension prepared above ([…]) in a total volume of 565 μl. […] The radioactivity was determined in 5 ml of Aquazol-2 in Packard scintillation counter (PACKARD TRI-CARB 4530), and an inhibitory ratio was calculated.

CCCCCCCCCCC(=O)c1cn(CCCC(=O)O)c2ccccc12 [(1), 4-(3-Undecanoyl-1-indolyl)butyric acid]
IC50: 440 pM
